Measured values published in PubChem BioAssay (NCI).
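All cell lines were grown in 96-well plates and treated with compound for 48 hours. TGI denotes the concentration required for complete inhibition of growth.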

What was measured:
Test in all cases: NCI tumour cell line growth inhibition, 48 h
HCC-2998 colon = tested on: HCC-2998 colon
A498 renal = tested on: A498 renal
NCI/ADR-RES ovarian = tested on: NCI/ADR-RES ovarian
RPMI-8226 leukemia = tested on: RPMI-8226 leukemia
SR leukemia = tested on: SR leukemia
SNB-75 CNS = tested on: SNB-75 CNS
SK-MEL-2 melanoma = tested on: SK-MEL-2 melanoma
OVCAR-4 ovarian = tested on: OVCAR-4 ovarian
HOP-62 NSCLC = tested on: HOP-62 NSCLC
UACC-257 melanoma = tested on: UACC-257 melanoma
MCF7 breast = tested on: MCF7 breast
MDA-MB-231 breast = tested on: MDA-MB-231 breast
SN12C renal = tested on: SN12C renal
786-0 renal = tested on: 786-0 renal
COLO 205 colon = tested on: COLO 205 colon
HT29 colon = tested on: HT29 colon
SF-268 CNS = tested on: SF-268 CNS
HS 578T breast = tested on: HS 578T breast
NCI-H226 lung = tested on: NCI-H226 lung
IGROV1 ovarian = tested on: IGROV1 ovarian
SNB-19 CNS = tested on: SNB-19 CNS
SK-MEL-28 melanoma = tested on: SK-MEL-28 melanoma
M14 melanoma = tested on: M14 melanoma
RXF 393 renal = tested on: RXF 393 renal
SK-OV-3 ovarian = tested on: SK-OV-3 ovarian
CAKI-1 renal = tested on: CAKI-1 renal
ACHN renal = tested on: ACHN renal
HCT-15 colon = tested on: HCT-15 colon
EKVX NSCLC = tested on: EKVX NSCLC
SF-295 CNS = tested on: SF-295 CNS
HOP-92 NSCLC = tested on: HOP-92 NSCLC
HCT-116 colon = tested on: HCT-116 colon
TK-10 renal = tested on: TK-10 renal
DU-145 prostate = tested on: DU-145 prostate
OVCAR-5 ovarian = tested on: OVCAR-5 ovarian
BT-549 breast = tested on: BT-549 breast
CCRF-CEM leukemia = tested on: CCRF-CEM leukemia
A549 NSCLC = tested on: A549 NSCLC
UO-31 renal = tested on: UO-31 renal
UACC-62 melanoma = tested on: UACC-62 melanoma
NCI-H460 lung = tested on: NCI-H460 lung
T-47D breast = tested on: T-47D breast
NCI-H23 lung = tested on: NCI-H23 lung
KM12 colon = tested on: KM12 colon
SW-620 colon = tested on: SW-620 colon
OVCAR-8 ovarian = tested on: OVCAR-8 ovarian
MALME-3M melanoma = tested on: MALME-3M melanoma
PC-3 prostate = tested on: PC-3 prostate
SK-MEL-5 melanoma = tested on: SK-MEL-5 melanoma
OVCAR-3 ovarian = tested on: OVCAR-3 ovarian
U251 CNS = tested on: U251 CNS
MDA-MB-435 = tested on: MDA-MB-435
K-562 leukemia = tested on: K-562 leukemia
MOLT-4 leukemia = tested on: MOLT-4 leukemia
HL-60(TB) leukemia = tested on: HL-60(TB) leukemia
SF-539 CNS = tested on: SF-539 CNS
NCI-H522 lung = tested on: NCI-H522 lung
LOX IMVI melanoma = tested on: LOX IMVI melanoma

Measured: TGI

O=C1Cc2c([nH]c3ccccc23)C2(CC3CCCCN13)OCCO2 (stereo not given)
> 100 µM: HCC-2998 colon | A498 renal | NCI/ADR-RES ovarian | RPMI-8226 leukemia | SR leukemia | SNB-75 CNS | SK-MEL-2 melanoma | OVCAR-4 ovarian | HOP-62 NSCLC | UACC-257 melanoma | MCF7 breast | MDA-MB-231 breast | SN12C renal | 786-0 renal | COLO 205 colon | HT29 colon | SF-268 CNS | HS 578T breast | NCI-H226 lung | IGROV1 ovarian | SNB-19 CNS | SK-MEL-28 melanoma | M14 melanoma | RXF 393 renal | SK-OV-3 ovarian | CAKI-1 renal | ACHN renal | HCT-15 colon | EKVX NSCLC | SF-295 CNS | HOP-92 NSCLC | HCT-116 colon | TK-10 renal | DU-145 prostate | OVCAR-5 ovarian | BT-549 breast | CCRF-CEM leukemia | A549 NSCLC | UO-31 renal | UACC-62 melanoma | NCI-H460 lung | T-47D breast | NCI-H23 lung | KM12 colon | SW-620 colon | OVCAR-8 ovarian | MALME-3M melanoma | PC-3 prostate | SK-MEL-5 melanoma | OVCAR-3 ovarian | U251 CNS | MDA-MB-435

Cc1ccc(C2(c3ccc(C)cc3)SC(=C(C#N)C#N)c3ccccc32)cc1
> 100 µM: HCC-2998 colon | A498 renal | NCI/ADR-RES ovarian | SR leukemia | SK-MEL-2 melanoma | HOP-62 NSCLC | MCF7 breast | MDA-MB-231 breast | SN12C renal | 786-0 renal | K-562 leukemia | HT29 colon | SF-268 CNS | HS 578T breast | MOLT-4 leukemia | NCI-H226 lung | IGROV1 ovarian | SNB-19 CNS | SK-MEL-28 melanoma | M14 melanoma | RXF 393 renal | SK-OV-3 ovarian | ACHN renal | HCT-15 colon | EKVX NSCLC | SF-295 CNS | HOP-92 NSCLC | HL-60(TB) leukemia | HCT-116 colon | TK-10 renal | DU-145 prostate | OVCAR-5 ovarian | BT-549 breast | CCRF-CEM leukemia | A549 NSCLC | UO-31 renal | UACC-62 melanoma | NCI-H460 lung | T-47D breast | NCI-H23 lung | KM12 colon | SW-620 colon | OVCAR-8 ovarian | MALME-3M melanoma | PC-3 prostate | SK-MEL-5 melanoma | OVCAR-3 ovarian | U251 CNS | SF-539 CNS | MDA-MB-435

N#CCCOc1cccc(C2(N3CCCCC3)CCCCC2)c1
> 100 µM: A498 renal | NCI/ADR-RES ovarian | RPMI-8226 leukemia | SR leukemia | SK-MEL-2 melanoma | OVCAR-4 ovarian | HOP-62 NSCLC | UACC-257 melanoma | MCF7 breast | MDA-MB-231 breast | SN12C renal | 786-0 renal | COLO 205 colon | K-562 leukemia | HT29 colon | SF-268 CNS | HS 578T breast | MOLT-4 leukemia | NCI-H226 lung | IGROV1 ovarian | SNB-19 CNS | SK-MEL-28 melanoma | M14 melanoma | SK-OV-3 ovarian | CAKI-1 renal | ACHN renal | HCT-15 colon | EKVX NSCLC | SF-295 CNS | NCI-H522 lung | HL-60(TB) leukemia | HCT-116 colon | TK-10 renal | DU-145 prostate | OVCAR-5 ovarian | BT-549 breast | CCRF-CEM leukemia | A549 NSCLC | UO-31 renal | UACC-62 melanoma | T-47D breast | LOX IMVI melanoma | NCI-H23 lung | KM12 colon | SW-620 colon | OVCAR-8 ovarian | MALME-3M melanoma | PC-3 prostate | SK-MEL-5 melanoma | OVCAR-3 ovarian | U251 CNS | SF-539 CNS | MDA-MB-435
